Source: PubChem BioAssay AID179 (DTP/NCI, 2004)
Where “and” joins values, the source holds several entries; their conditions need not be identical. Equal values may be shown once. Calls of active or inactive are those of the source.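 Rule for the calls: active = compounds giving half or more protection of infected cells from virus-caused growth loss, again on retest; inactive = the rest.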

Test system: CEM cells HIV-1 protection, formazan growth assay
Test: NCI AIDS Antiviral Assay
Settings: for IC50: measured here: growth of uninfected CEM cells
In short: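 Protection of CEM cells against HIV-1 was scored from cell growth (soluble formazan) across five concentrations, with parallel uninfected cells. Lack of protection may reflect toxicity.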

Row | Structure (SMILES) | EC50 | IC50 | outcome
1 | CC(C)(C)c1ccccc1N1C(=O)c2ccc3c4c(ccc(c24)C1=O)N(c1ccccc1C(C)(C)C)C3=O | > 200 µM | > 200 µM | –
2 | CC1(c2cccc(N)c2)C2C(=O)NC(=O)C1C(=O)NC2=O (stereo unspecified) | > 331 µM | 56.2 µM | –
3 | CCOC(=O)c1ccc(N2C(=O)c3cccc4cccc(c34)C2=O)cc1 | > 100 µM | > 100 µM | –
4 | CC1C(c2ccccc2)OC(N2CCOCC2)C(C)(C)CN1C (stereo unspecified) | > 200 µM | > 200 µM | –
5 | N=C(N)SCc1ccc(Cl)cc1Cl (tested in a mixture with another compound) | > 100 µM | 60.3 µM | –
6 | O=S(=O)(O)c1cc(N=Nc2cc(S(=O)(=O)O)c3ccccc3c2O)ccc1/C=C/c1ccc(N=Nc2cc(S(=O)(=O)O)c3ccccc3c2O)cc1S(=O)(=O)O | 33.9 µM and 12.3 µM | 191 µM and > 200 µM | –
7 | COc1cccc(/C(Cl)=C(\C=O)c2cccc(OC)c2)c1 | > 17.4 µM | 9.12 µM | –
8 | C=C/C=C/NC(=O)OCc1ccccc1 | – | – | inactive
9 | CC/C=C\C/C=C\C1CC(=O)NCCCNCCCCN1 (stereo unspecified) | – | – | inactive
10 | CC12OC(=O)C(C(N)=O)=C1C=C(c1ccccc1)CC2c1ccccc1 (stereo unspecified) | > 200 µM | 33.1 µM | –
11 | Cc1nn(C)cc1P(=S)(c1ccccc1)c1ccccc1 | > 16.6 µM | > 16.6 µM | –
12 | Cc1cccc(C)c1NC(=O)C(=O)CC(=O)CO | > 724 µM | > 724 µM | –
13 | Cc1oc(-c2cccc(F)c2)nc1C(N)=O | > 200 µM | > 200 µM | –
14 | O=C1CCCC2C3CC(CN12)C1CC(O)CCN1C3 (stereo unspecified) | > 200 µM | > 200 µM | –
15 | CN(C)P(CCPc1ccccc1)N(C)C (stereo unspecified) | > 977 µM | > 977 µM | –
16 | C/C(CC(=O)Nc1ccccc1C)=N/NS(=O)(=O)c1ccc(C)cc1 | > 363 µM | > 363 µM | –
17 | COC1/C=C/OC2(C)Oc3c(C)c(O)c4c(O)c(c(/C=N/N5C(C)CN(Cc6ccc(C(C)(C)C)cc6)CC5C)c(O)c4c3C2=O)NC(=O)/C(C)=C\C=C\C(C)C(O)C(C)C(O)C(C)C(OC(C)=O)C1C (stereo unspecified) | > 200 µM | 12.3 µM | –
18 | COC(=O)c1nc2c(C)c(O)c(O)c([C@H](C)CCC=C(C)C)c2o1 | > 200 µM | 13.5 µM | –
19 | S=c1[nH]c2cccc3c2n1C[C@@H]1CCCN1C3 | > 32.4 µM | 17 µM | –
20 | Cc1cn(C2CC(N=[N+]=[N-])C(COC(=O)CCCCCCCCCCCc3ccccc3)O2)c(=O)[nH]c1=O (stereo unspecified) | 0.0955 µM | 89.1 µM | –

Row | Structure (SMILES) | EC50 | IC50 | outcome
21 | O=[N+]([O-])c1ccc(NN=C2CN3CCN(C2)c2ccccc23)c([N+](=O)[O-])c1 | > 200 µM | 162 µM | –
22 | COC(=O)/C=C(\C=C/C(=O)O)C(=O)O | > 1260 µM | 251 µM | –
23 | CCCCc1ccc(Nc2nc(=S)c3[nH]cnc3[nH]2)cc1 | > 200 µM | 44.7 µM | –
24 | CSc1nnc(N(C(C)C)C(C)C)c2nc[nH]c12 | > 200 µM | > 200 µM | –
25 | O=C(O)CN(CC(=O)O)Cc1cc(C#Cc2ccc(C#Cc3ccccc3)cc2)cc(CN(CC(=O)O)CC(=O)O)n1 | > 77.6 µM | 19.5 µM | –
26 | CC1(C)CCOC(=O)C(Cl)CC1Cl (stereo unspecified) | > 200 µM | > 200 µM | –
27 | Cc1ccc2nc3c(C)cc(=O)cc-3sc2c1 | > 77.6 µM | 50.1 µM | –
28 | NC(=O)c1n[nH]c(C2OC(CO)C(O)C2O)n1 (stereo unspecified) | > 200 µM | 170 µM | –
29 | CCCCN1C(CO)C(O)C(O)C(O)C1CO (stereo unspecified) | > 200 µM | > 200 µM | –
30 | C/C=C/C(=O)N1C(=O)OC[C@@H]1c1ccccc1 | > 200 µM | 6.92 µM | –
31 | C[C@@H]1c2c([nH]c(=O)[nH]c2=O)O[C@@H]1c1ccccc1 | > 200 µM | > 200 µM | –
32 | CCCCNC(=O)CCN(C(=O)O)S(=O)(=O)c1ccc(NC(=O)c2ccccc2)cc1 | > 112 µM | > 112 µM | –
33 | NS(=O)(=O)c1ccc(NNC(=O)c2cccc3c(=O)c4ccccc4[nH]c23)cc1 | > 200 µM | 58.9 µM | –
34 | CCN(CC)CC(=O)Nc1c(C)ccc(N)c1C | > 200 µM | > 200 µM | –
35 | CC(=O)N1CCC2(C=Nc3ccccc32)CC1 | > 22.9 µM | > 22.9 µM | –
36 | Cc1cc(Br)cc(C)c1NC(=O)C(=O)C(C(=O)c1ccc(Cl)c(Cl)c1)C1OC(=O)c2ccccc21 (stereo unspecified) | > 49 µM | 6.76 µM | –
37 | CCCCCCCCCCNc1nc(F)nc(Nc2cc3ccc(OC)cc3oc2=O)n1 | > 39.8 µM | 7.08 µM | –
38 | CCOc1ccc(/C(O)=C/c2nc3ccccc3nc2/C=C(\O)c2ccc(OCC)cc2)cc1 | > 100 µM | > 100 µM | –
39 | O=C1c2cccn2-c2ccccc2OC1(CC1CC1)c1ccccc1 (stereo unspecified) | > 200 µM | 11.5 µM | –
